For the test, the target named is P2X7 (Homo sapiens (Human), UniProt Q99572). The test is described as follows: P2X7 antagonism in human PBMCs (IL-1β release, ELISA). In kind it is cell-based. Conditions: 10 μM test compound, LPS 30 ng/ml + Bz-ATP 0.5 mM. For orientation: In an ELISA, binding on a coated surface is turned into a signal by an enzyme label.

SMILES strings stand for the structures.

Sequence of P2X7 (Q99572 whole entry): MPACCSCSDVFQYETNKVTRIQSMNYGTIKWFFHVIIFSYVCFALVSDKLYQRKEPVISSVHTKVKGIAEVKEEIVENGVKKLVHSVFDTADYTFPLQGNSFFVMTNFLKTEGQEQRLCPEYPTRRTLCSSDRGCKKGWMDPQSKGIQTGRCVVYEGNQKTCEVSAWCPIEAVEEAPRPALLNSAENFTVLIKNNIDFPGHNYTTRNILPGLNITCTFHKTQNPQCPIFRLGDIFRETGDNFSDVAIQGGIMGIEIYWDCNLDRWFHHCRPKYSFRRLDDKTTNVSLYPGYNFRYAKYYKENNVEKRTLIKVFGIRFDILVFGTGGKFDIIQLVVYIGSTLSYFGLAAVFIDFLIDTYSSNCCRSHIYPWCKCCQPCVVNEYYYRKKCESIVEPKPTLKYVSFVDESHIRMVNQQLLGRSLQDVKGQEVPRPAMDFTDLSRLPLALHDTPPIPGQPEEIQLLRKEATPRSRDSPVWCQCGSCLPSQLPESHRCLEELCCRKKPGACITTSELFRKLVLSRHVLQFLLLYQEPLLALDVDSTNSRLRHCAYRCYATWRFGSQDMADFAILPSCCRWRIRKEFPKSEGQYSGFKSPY
Method: Human blood was collected using a blood donor program. PBMCs were isolated from blood using a Ficoll density gradient technique. Briefly, blood was laid on Ficoll solution and centrifuged at RT for 20 minutes at 2000 rpm. The buffy layer (between red blood cells and plasma) was carefully collected by aspiration, washed with PBS and centrifuged again at 1500 rpm for 15 minutes. The resulting cell pellet was washed and plated on 96 well-plates for experiments. For the Mouse/Human Whole Blood experiments, 150 μl of either mouse or human blood was platted on 96 well-plates. Lipopolysaccharide (LPS) (30 ng/ml) was added to each well and incubated for 1 hour. Test compounds were then added and incubated for 30 minutes. The P2X7 agonist, 2′(3′)-O-(4-benzoylbenzoyl) adenosine 5′-triphosphate (Bz-ATP) was then added at a final concentration of 0.5 mM (PBMC) or 1 mM (blood). Cells were incubated for an additional 1.5 hours. At that point, supernatant was collected and stored for IL-1β assay using manufacturer's protocol for enzyme-linked immunosorbent assay (ELISA). Data was expressed as percent control, where control is defined as the difference in IL-1β release in LPS+Bz-ATP samples and LPS only samples. Data was plotted as response (% control) versus concentration to generate IC50 values.

Take `Cc1c(C(=O)N2Cc3nnn(C4=NN=CC4)c3CC2C)cccc1C(F)(F)F` (stereo not shown) [Example 154, (6-methyl-1-(1H-pyrazol-3-yl)-6,7-dihydro-1H-[1,2,3]triazolo[4,5-c]pyridin-5(4H)-yl)(2-methyl-3-(trifluoromethyl)phenyl)methanone]: the “PBMC 10 μM (% control)” value is on record as −0.6 % control. Take `Cc1cc(C)nc(-n2nnc3c2CCN(C(=O)c2cccc(C(F)(F)F)c2Cl)C3C)n1` (stereo not shown) [Example 253, (2-Chloro-3-(trifluoromethyl)phenyl)(1-(4,6-dimethylpyrimidin-2-yl)-4-methyl-6,7-dihydro-1H-[1,2,3]triazolo[4,5-c]pyridin-5(4H)-yl)methanone]: the “PBMC 10 μM (% control)” value is reported as −2.6 % control. For the compound `CC1c2nn(COCC[Si](C)(C)C)c(-c3ncc(F)cn3)c2CCN1C(=O)c1cccc(C(F)(F)F)c1Cl` (stereo not shown) [Example 303, (2-chloro-3-(trifluoromethyl)phenyl)(3-(5-fluoropyrimidin-2-yl)-7-methyl-2-((2-(trimethylsilyl)ethoxy)methyl)-4,5-dihydro-2H-pyrazolo[3,4-c]pyridin-6(7H)-yl)methanone], the “PBMC 10 μM (% control)” value is recorded as −1.6 % control.

`Cc1nc2c(n1-c1ccccc1)CCN(C(=O)c1cccc(Cl)c1Cl)C2` [Example 331, (2,3-dichlorophenyl)(2-methyl-1-phenyl-6,7-dihydro-1H-imidazo[4,5-c]pyridin-5 (4H)-yl)methanone]: the “PBMC 10 μM (% control)” value is reported as −11.0 % control.

Values taken from US10703749B2, “P2X7 modulators” (Janssen Pharmaceutica NV, priority 2013, dated 2020).
